Patent US6686380B2, “Treatment of refractory tumors using epothilone derivatives” (Bristol-Myers Squibb Company, priority 2001, dated 2004)

Tests used:
[1] = tested on: A2780 human ovarian carcinoma; HCT116 and LS 174T human colon carcinoma; assay: In vivo antitumor testing, paclitaxel-sensitive xenografts; design: species or system nude mice; settings: three paclitaxel-sensitive human tumor xenografts
Description: (§1) In Vivo Antitumor Testing: The following human tumors were used: ovarian carcinoma A2780, A2780Tax and Pat-7 (established from an ovarian tumor biopsy from a patient who had developed resistance to paclitaxel); HCT116, HCT116/VM46 and LS174T colon carcinomas, Pat-21 breast carcinoma, and Pat-26 pancreatic carcinoma (from a liver metastasis biopsy). Pat-7, Pat-21 ad Pat-26 xenografts were established initially from primary tumor biopsies directly as xenotransplants grown in whole-body irradiated nude mice without any intervening in vitro cell culturing steps. The innately paclitaxel-insensitive murine fibrosarcoma M5076 was also employed. The human tumor xenografts were maintained in Balb/c nu/nu nude mice. M5076 was maintained in C57BL/6 mice. Tumors were propagated as subcutaneous transplants in the appropriate mouse strain using tumor fragments obtained from donor mice. […]
(§2) The required number of animals needed to detect a meaningful response (6-8) were pooled at the start of the experiment and each was given a subcutaneous implant of a tumor fragment (˜50 mg) with a 13-gauge trocar. […] For treatment of animals with advanced-stage disease, tumors were allowed to grow to the pre-determined size window (tumors outside the range were excluded) and animals were evenly distributed to various treatment and control groups. […]

[2] = tested on: clonogenic tumor cells; assay: Clonogenic cell colony-formation assay (IC90); type: cell-based; settings: clonogenic cytotoxicity assay; read-out: concentration needed to kill 90% of clonogenic cancer cells (IC90)
Method: Clonogenic cell colony-formation assay: the potency required for the test compound and paclitaxel to kill clonogenic tumor cells (cells that are able to divide indefinitely to form a colony) in vitro was evaluated by a colony formation assay. The concentration needed to kill 90% of clonogenic cancer cells (IC90) was determined.

[3] = tested on: Pat-7 human ovarian carcinoma; assay: In vivo antitumor testing, Pat-7 xenograft; design: species or system nude mice
Description: In Vivo Antitumor Testing: The following human tumors were used: ovarian carcinoma A2780, A2780Tax and Pat-7 (established from an ovarian tumor biopsy from a patient who had developed resistance to paclitaxel); HCT116, HCT116/VM46 and LS174T colon carcinomas, Pat-21 breast carcinoma, and Pat-26 pancreatic carcinoma (from a liver metastasis biopsy). Pat-7, Pat-21 ad Pat-26 xenografts were established initially from primary tumor biopsies directly as xenotransplants grown in whole-body irradiated nude mice without any intervening in vitro cell culturing steps. The innately paclitaxel-insensitive murine fibrosarcoma M5076 was also employed. The human tumor xenografts were maintained in Balb/c nu/nu nude mice. M5076 was maintained in C57BL/6 mice. Tumors were propagated as subcutaneous transplants in the appropriate mouse strain using tumor fragments obtained from donor mice. Tumor passage occurred biweekly for murine tumors and approximately every two to eight weeks for the various human tumor lines. With regard to efficacy testing, M5076 tumors were implanted in (C57B1/6×DBA/2)F1 hybrid mice, and human tumors were implanted in nude mice. All tumor implants for efficacy testing were subcutaneous (sc).
The required number of animals needed to detect a meaningful response (6-8) were pooled at the start of the experiment and each was given a subcutaneous implant of a tumor fragment (˜50 mg) with a 13-gauge trocar. For treatment of early-stage tumors, the animals were again pooled before distribution to the various treatment and control groups. For treatment of animals with advanced-stage disease, tumors were allowed to grow to the pre-determined size window (tumors outside the range were excluded) and animals were evenly distributed to various treatment and control groups. Treatment of each animal was based on individual body weight. Treated animals were checked daily for treatment related toxicity/mortality. Each group of animals was weighed before the initiation of treatment (Wt1) and then again following the last treatment dose (Wt2).
Tumor weights (mg) were estimated from the formula: […]
The maximum tolerated dose (MTD) is defined as the dose level immediately above which excessive toxicity (i.e. more than one death) occurred. […] Activity is described at the OD.
Tumor response end-point was expressed in terms of tumor growth delay (T-C value), defined as the difference in time (days) required for the treated tumors (T) to reach a predetermined target size compared to those of the control group (C).

[4] = tested on: HCT116/VM46, A2780Tax and Pat-7 cell lines; assay: Cytotoxicity against cell lines that had developed resistance to paclitaxel (FIG. 2); type: cell-based, human
Method: (§3) The concentration needed to kill 90% of clonogenic cancer cells (IC90) was determined.

[5] = tested on: panel of tumor cell lines; assay: In vitro cytotoxicity, tetrazolium-based colorimetric assay; settings: read-out: median cytotoxic concentration (IC50 values); 21 cell lines tested; 72 h incubation; FIG. 1
Method: (§4) For administration to rodents, the subject compound was administered in either 1:9 ethanol/water, or 1:1:8 Cremophor®/ethanol/water. Final dilution for parenteral administration was made with water one hour before administration. Final dilution for oral administration was made with 0.25 M sodium phosphate buffer. Paclitaxel was dissolved in a 50/50 mixture of ethanol and Cremophor® and maintained at 4° C. Final dilution was made immediately prior to injection to prevent undesirable precipitation. Tumor cell lines HCT 116 human carcinoma and HCT116/V/M46 cells were maintained on McCoy's medium and 10% heat-inactivated fetal bovine serum. A2780 human ovarian carcinoma cells and A2780Tax cells were maintained in IMEM and 10% heat-inactivated fetal bovine serum. All other cell lines were maintained in RPM11640 medium with 10% heat-inactivated fetal bovine serum.
The in vivo cytotoxicity was assessed in tumor cells by a tetrazolium-based colorimetric assay at 492 nm. The cells were seeded 24 h prior to drug addition. The reagents were added following a 72 h incubation with serially diluted test compound. Measurements were taken after a further three hours incubation. The results are expressed as median cytotoxic concentration (IC50 values).

[6] = tested on: HCT116 and A2780 tumor cell lines; assay: Clonogenic cell colony-formation assay, paclitaxel-sensitive lines; type: cell-based, human; settings: two sensitive tumor cell lines (HCT116 and A2780)
Method: as §3

[7] = tested on: human tumor xenografts; assay: Antitumor activity by oral route of administration; type: in vivo, mice or rats; settings: two different human tumor xenografts
Method: as §4

[8] = tested on: Pat-7, A2780Tax, HCT116/VM46, Pat-21 and M5076 tumors; assay: In vivo antitumor testing, paclitaxel-resistant tumors; design: species or system mice; settings: all five paclitaxel-resistant tumors (four human and one murine)
Description: as §1, §2

[9] = tested on: tubulin isolated from calf brain; assay: Tubulin polymerization assay; type: biochemical; settings: based on EC0.01
Method: Tubulin polymerization assay: the potency required for the test compound and paclitaxel to polymerize tubulin isolated from calf brain was evaluated by published techniques. The effective concentration (EC0.01) was defined as the interpolated concentration capable of inducing an initial slope of optical density (OD) of 0.01 OD/minute rate and is calculated using the formula: EC0.01=concentration/slope. EC0.01 values are expressed as the mean with standard deviation obtained from 3 different concentrations.

[10] = tested on: human tumor xenografts; settings: general statement; cited from earlier work

SMILES | antitumor activity compared with paclitaxel [1] | IC90 [2] [nM] | LCK ([3]; PO, every 2 days x 5, at MTD, pH 8.0 buffered vehicle, first of two experiments) [LCK] | LCK ([3]; PO, every 2 days x 5, at MTD, pH 8.0 buffered vehicle, second of two experiments) [LCK] | oral antitumor activity ([3]; PO, every 2 days x 5 schedule) | retention of cytotoxic potency in resistant versus sensitive lines ([4]; HCT116/VM46, A2780Tax and Pat-7 compared to the sensitive lines) | cytotoxicity compared with paclitaxel ([4]; three cell lines that had developed resistance to paclitaxel, FIG. 2) | IC50 [5] [nM] | potency in killing clonogenic cells compared with paclitaxel [6] | antitumor activity given orally compared with IV administration [7] | antitumor efficacy compared with paclitaxel [8] | tubulin polymerization potency relative to paclitaxel [9] | LCK ([3]; IV, optimal dose and schedule, concomitantly tested, first of two experiments) [LCK] | LCK ([3]; IV, optimal dose and schedule, concomitantly tested, second of two experiments) [LCK] | activity when administered by the oral route [10]
C/C(=C\c1csc(C)n1)[C@@H]1CC2O[C@]2(C)CCC[C@H](C)[C@H](O)[C@@H](C)C(=O)C(C)(C)[C@@H](O)CC(=O)N1 (relative stereo) [test compound, [1 S-[1R*,3R*(E),7R*,10S*,11R*,12R*,16S*]]-7,11-1-Dihydroxy-8,8,10,12,16-pentamethyl-3-[1-methyl-2-(2-methyl-4-thiazolyl)ethenyl]-4-aza-17-oxabicyclo[14.1.0]heptadecane-5,9-dione] | equivalent to paclitaxel | ~7.5 | 3.1 | 2.5 | highly active orally | almost completely retaining its cytotoxic potency | far better than paclitaxel | 1.4 to 34.5 | similarly potent | equivalent to that produced by IV drug administration | more efficacious than paclitaxel | about 2.5 fold |  |  | 
CC(=O)O[C@H]1C(=O)[C@@]2(C)[C@H]([C@H](OC(=O)c3ccccc3)[C@]3(O)C[C@H](OC(=O)[C@H](O)[C@@H](NC(=O)c4ccccc4)c4ccccc4)C(C)=C1C3(C)C)[C@]1(OC(C)=O)CO[C@@H]1C[C@@H]2O [paclitaxel, reference compound] |  |  |  |  |  |  |  |  |  |  |  |  | 1.3 | 1.2 | typically inactive
